Measurements taken from PMC11642016 (International Journal of Molecular Sciences, 2024).
Several values for one entry are separate records, joined by “and”; a condition that tells them apart may be missing. Equal entries are not always repeated. Where two headings read alike, the source gives them in different places.

Legend:
[1] = in vitro; conditions: human, HEK293T WT Cell viability (% of controll), dose–response, individual replicates
Method: (§1) Primary fibroblast cultures were prepared from human skin biopsies and maintained in DMEM supplemented with 10% FBS, 1% penicillin-streptomycin, and 1% MEM Non-Essential Amino Acids Solution (Thermo Fisher Scientific). […] All cell lines were cultured in a humidified atmosphere at 37 °C and 5% CO2, passaged twice a week, and the experiments were performed on cells between passage 5 and 15. The cell lines were routinely screened for the absence of mycoplasma infection (DAPI staining).
(§2) The effects of the synthesized compounds on cell viability were measured using the CellTiter-Glo® luminescent cell viability assay (Promega, Madison, WI, USA), according to the manufacturer’s instructions. Briefly, cells were seeded onto a flat-bottomed, white 96-well plate (BRANDplates, cat. no.: 781965)), with the following densities: PANC-1: 750 cells/well, Fadu: 2000 cells/well, primary fibroblasts: 2000 cells/well, HEK293T WT: 1000 cells/well, HEK293T CLPP^−/−: 2500 cells/well. After seeding, cells were incubated for a further 48 h before treatment. Cells were treated with the compounds for 72 h. Three concentrations (25.0 µM; 8.3 µM; 2.8 µM) were applied during the initial cell viability screening, while for the determination of dose–response curves, 1.5-fold serially diluted compound concentrations were applied (range: 26 µM–0.7 µM). After treatment, the luminescence signal was recorded using a microplate reader (BioTek Synergy 2 Multi-Mode Reader, BioTek, Winooski, VT, USA).
(§3) Data analysis was performed using GraphPad Prism 9.5.0 software (GraphPad Software, San Diego, CA, USA). […] The dose–response curves were generated by four-parameter nonlinear regression, and the IC50 values were determined as the means ± SEM of the best-fit values of 3 independent measurements. The R^2 values were consistently above 0.93, indicating a strong fit of the model to the experimental data (Supplementary S.89). […] Dunnett’s post hoc test was applied to adjust for multiple comparisons, minimizing the likelihood of false positive results. Assumptions for ANOVA, including normality (assessed via QQ plots) and homogeneity of variance (tested using the Brown–Forsythe test), were verified. The following significance levels were applied: * p < 0.05, ** p < 0.01, *** p < 0.001, **** p < 0.0001. […] The tumor selectivity of the compounds was quantitatively characterized by the selectivity index (SI). This parameter was calculated as the ratio of the average best-fit IC50 value for primary fibroblasts and the best-fit IC50 value for the corresponding tumor cells (PANC-1 or Fadu).

[2] = tested on: PANC-1 cells; test: CellTiter-Glo luminescent cell viability assay, PANC-1; conditions: for viability at 2.8 µM: read-out: Cell Viability (% of Control) 2.8 µM, PANC-1; for viability at 2.8 µM / viability at 8.3 µM / viability at 25 µM: mean ± SD, n = 2; for viability at 8.3 µM: read-out: Cell Viability (% of Control) 8.3 µM, PANC-1; for viability at 25 µM: read-out: Cell Viability (% of Control) 25 µM, PANC-1
[3] = tested on: HEK293T WT cells; test: CellTiter-Glo cell viability assay, HEK293T WT; conditions: for HEK293T WT Cell viability (% of controll): dose–response, individual replicates
Method: as §1, §2, §3

[4] = tested on: Fadu cells; test: CellTiter-Glo luminescent cell viability assay, Fadu; conditions: for viability at 2.8 µM: read-out: Cell Viability (% of Control) 2.8 µM, Fadu; for viability at 2.8 µM / viability at 8.3 µM / viability at 25 µM: mean ± SD, n = 2; for viability at 8.3 µM: read-out: Cell Viability (% of Control) 8.3 µM, Fadu; for viability at 25 µM: read-out: Cell Viability (% of Control) 25 µM, Fadu
[5] = in vitro; conditions: human, fibroblast viability in the tested concentration range, dose–response range 26–0.7 µM
Method: as §1, §2, §3

[6] = 0.7 μM, 72 h, dose–response, individual replicates
[7] = 1 μM, 72 h, dose–response, individual replicates
[8] = 1.5 μM, 72 h, dose–response, individual replicates
[9] = 2.3 μM, 72 h, dose–response, individual replicates
[10] = 3.4 μM, 72 h, dose–response, individual replicates
[11] = 5.1 μM, 72 h, dose–response, individual replicates
[12] = 7.7 μM, 72 h, dose–response, individual replicates
[13] = 17.3 μM, 72 h, dose–response, individual replicates
[14] = 26 μM, 72 h, dose–response, individual replicates
[15] = Homo sapiens, PANC-1, 72 h, 72 h, first-set screening
[16] = Homo sapiens, PANC-1, 72 h, 72 h, second-set screening
[17] = Homo sapiens, FaDu, 72 h, 72 h, first-set screening
[18] = Homo sapiens, FaDu, 72 h, 72 h, second-set screening

Work on `Cc1ccccc1CN1C(=O)C2=C(CCN(Cc3ccccc3)C2)N2CCN=C12` [ONC201, reference compound] yielded a viability at 72 h, 0.6 µM ([1]; 0.6 μM) of 60%, a viability at 72 h, 1 µM ([1]; 1.0 μM) of 30% and a viability at 72 h, 1.6 µM ([1]; 1.6 μM) of 28%. It also gave a viability at 72 h, 2.5 µM ([1]; 2.5 μM) of 21%, a viability at 72 h, 4 µM ([1]; 4.0 μM) of 19% and a viability at 72 h, 6.4 µM ([1]; 6.4 μM) of 18%. The viability at 72 h, 16.25 µM ([1]; 16.25 μM) was 15%, the viability at 72 h, 26 µM ([1]; 26 μM) was 15% and the “PANC-1 Cell viability (% of controll)” value [2, 6] was 92 % of controll and 97 % of controll. The “PANC-1 Cell viability (% of controll)” value [2, 7] was 102 % of controll and 101 % of controll, the “PANC-1 Cell viability (% of controll)” value [2, 8] was 86 % of controll and 101 % of controll and the “PANC-1 Cell viability (% of controll)” value [2, 9] was 78 % of controll and 84 % of controll. For the same compound, the “PANC-1 Cell viability (% of controll)” value [2, 10] was 57 % of controll and 60 % of controll, the “PANC-1 Cell viability (% of controll)” value [2, 11] was 51 % of controll and 54 % of controll and the “PANC-1 Cell viability (% of controll)” value [2, 12] was 43 % of controll and 48 % of controll. For the same compound, the “PANC-1 Cell viability (% of controll)” value [2, 13] was 37 % of controll and 35 % of controll, the “PANC-1 Cell viability (% of controll)” value [2, 14] was 32 % of controll and 29 % of controll and the viability at 2.8 µM [2, 15] was 69 ± 1%. It also gave a viability at 2.8 µM [2, 16] of 59 ± 9%, a viability at 8.3 µM [2, 15] of 58 ± 1% and a viability at 8.3 µM [2, 16] of 35 ± 2%. For the same compound, the viability at 25 µM [2, 15] was 53 ± 2%, the viability at 25 µM [2, 16] was 22 ± 2% and the IC50 ([2]; Homo sapiens, PANC-1, 72 h, read-out: IC50 Value ± SEM PANC-1, 72 h treatment, best-fit values, n = 3) was 3100 ± 260 nM. The viability at 0.7 µM ([2]; Homo sapiens, PANC-1, 72 h, read-out: PANC-1 Cell viability (% of controll), 0.7 μM, 72 h, dose–response, individual replicates) was 90%, the viability at 1 µM ([2]; Homo sapiens, PANC-1, 72 h, read-out: PANC-1 Cell viability (% of controll), 1 μM, 72 h, dose–response, individual replicates) was 94% and the viability at 1.5 µM ([2]; Homo sapiens, PANC-1, 72 h, read-out: PANC-1 Cell viability (% of controll), 1.5 μM, 72 h, dose–response, individual replicates) was 85%. It also gave a viability at 2.3 µM ([2]; Homo sapiens, PANC-1, 72 h, read-out: PANC-1 Cell viability (% of controll), 2.3 μM, 72 h, dose–response, individual replicates) of 72%, a viability at 3.4 µM ([2]; Homo sapiens, PANC-1, 72 h, read-out: PANC-1 Cell viability (% of controll), 3.4 μM, 72 h, dose–response, individual replicates) of 64% and a viability at 5.1 µM ([2]; Homo sapiens, PANC-1, 72 h, read-out: PANC-1 Cell viability (% of controll), 5.1 μM, 72 h, dose–response, individual replicates) of 49%. For the same compound, the viability at 7.7 µM ([2]; Homo sapiens, PANC-1, 72 h, read-out: PANC-1 Cell viability (% of controll), 7.7 μM, 72 h, dose–response, individual replicates) was 46%, the viability at 17.3 µM ([2]; Homo sapiens, PANC-1, 72 h, read-out: PANC-1 Cell viability (% of controll), 17.3 μM, 72 h, dose–response, individual replicates) was 34% and the viability at 26 µM ([2]; Homo sapiens, PANC-1, 72 h, read-out: PANC-1 Cell viability (% of controll), 26 μM, 72 h, dose–response, individual replicates) was 33%. The IC50 ([2]; Homo sapiens, PANC-1, read-out: PANC-1 IC50 values, Mean, mean of independently fitted replicate IC50 values (Supplement S.6)) was 3050 nM, the IC50 ([2]; Homo sapiens, PANC-1, read-out: PANC-1 IC50 values, individual replicates n1-n3, IC50 independently determined for each replicate measurement (Supplement S.6)) was 3220 nM and the IC50 ([2]; read-out: PANC-1 IC50 values, individual replicates n1-n3, IC50 independently determined for each replicate measurement (Supplement S.6)) was 3140 nM and 2780 nM. The “HEK293T WT Cell viability (% of controll)” value ([3]; 0.4 μM, 72 h) was 105 % of controll and 96 % of controll and 95 % of controll, the “HEK293T WT Cell viability (% of controll)” value ([3]; 0.6 μM, 72 h) was 70 % of controll and 65 % of controll and 68 % of controll and the “HEK293T WT Cell viability (% of controll)” value ([3]; 1.0 μM, 72 h) was 32 % of controll and 31 % of controll. For the same compound, the “HEK293T WT Cell viability (% of controll)” value ([3]; 1.6 μM, 72 h) was 25 % of controll and 29 % of controll, the “HEK293T WT Cell viability (% of controll)” value ([3]; 2.5 μM, 72 h) was 19 % of controll and 22 % of controll and 23 % of controll and the “HEK293T WT Cell viability (% of controll)” value ([3]; 4.0 μM, 72 h) was 19 % of controll and 22 % of controll and 20 % of controll. The “HEK293T WT Cell viability (% of controll)” value ([3]; 6.4 μM, 72 h) was 19 % of controll and 22 % of controll and 20 % of controll, the “HEK293T WT Cell viability (% of controll)” value ([3]; 16.25 μM, 72 h) was 18 % of controll and 19 % of controll and the “HEK293T WT Cell viability (% of controll)” value ([3]; 26 μM, 72 h) was 15 % of controll and 16 % of controll and 18 % of controll. It also gave an IC50 ([3]; Homo sapiens, HEK-293T, 72 h, read-out: IC50 (µM) HEK293T WT, 72 h treatment, ± SEM, best-fit values, n = 4) of 0.6 ± 0.03 µM, an IC50 ([3]; Homo sapiens, HEK-293T, read-out: HEK293T WT IC50 values, Mean, mean of independently fitted replicate IC50 values (Supplement S.6)) of 0.56 µM and an IC50 ([3]; Homo sapiens, HEK-293T, read-out: HEK293T WT IC50 values, individual replicates n1-n4, IC50 independently determined for each replicate measurement (Supplement S.6)) of 0.394 µM. The IC50 ([3]; read-out: HEK293T WT IC50 values, individual replicates n1-n4, IC50 independently determined for each replicate measurement (Supplement S.6)) was 0.626 µM and 0.558 µM and 0.643 µM, the “Fadu Cell viability (% of controll)” value [4, 6] was 93 % of controll and the “Fadu Cell viability (% of controll)” value [4, 7] was 86 % of controll and 77 % of controll. For the same compound, the “Fadu Cell viability (% of controll)” value [4, 8] was 59 % of controll and 51 % of controll, the “Fadu Cell viability (% of controll)” value [4, 9] was 55 % of controll and 30 % of controll and the “Fadu Cell viability (% of controll)” value [4, 10] was 26 % of controll. The “Fadu Cell viability (% of controll)” value [4, 11] was 26 % of controll, the “Fadu Cell viability (% of controll)” value [4, 12] was 28 % of controll and 27 % of controll and the “Fadu Cell viability (% of controll)” value [4, 13] was 23 % of controll and 24 % of controll. For the same compound, the “Fadu Cell viability (% of controll)” value [4, 14] was 22 % of controll and 24 % of controll, the viability at 2.8 µM [4, 17] was 31 ± 1% and the viability at 2.8 µM [4, 18] was 38 ± 5%. For the same compound, the viability at 8.3 µM [4, 17] was 29 ± 1%, the viability at 8.3 µM [4, 18] was 31 ± 2% and the viability at 25 µM [4, 17] was 27 ± 1%. For the same compound, the viability at 25 µM [4, 18] was 25 ± 3%, the viability at 0.7 µM ([4]; Homo sapiens, FaDu, 72 h, read-out: Fadu Cell viability (% of controll), 0.7 μM, 72 h, dose–response, individual replicates) was 94% and the viability at 1 µM ([4]; Homo sapiens, FaDu, 72 h, read-out: Fadu Cell viability (% of controll), 1 μM, 72 h, dose–response, individual replicates) was 85%. It also gave a viability at 1.5 µM ([4]; Homo sapiens, FaDu, 72 h, read-out: Fadu Cell viability (% of controll), 1.5 μM, 72 h, dose–response, individual replicates) of 66%, a viability at 3.4 µM ([4]; Homo sapiens, FaDu, 72 h, read-out: Fadu Cell viability (% of controll), 3.4 μM, 72 h, dose–response, individual replicates) of 40% and a viability at 5.1 µM ([4]; Homo sapiens, FaDu, 72 h, read-out: Fadu Cell viability (% of controll), 5.1 μM, 72 h, dose–response, individual replicates) of 39%. The viability at 7.7 µM ([4]; Homo sapiens, FaDu, 72 h, read-out: Fadu Cell viability (% of controll), 7.7 μM, 72 h, dose–response, individual replicates) was 38%, the viability at 17.3 µM ([4]; Homo sapiens, FaDu, 72 h, read-out: Fadu Cell viability (% of controll), 17.3 μM, 72 h, dose–response, individual replicates) was 33% and the viability at 26 µM ([4]; Homo sapiens, FaDu, 72 h, read-out: Fadu Cell viability (% of controll), 26 μM, 72 h, dose–response, individual replicates) was 31%. For the same compound, the IC50 ([4]; Homo sapiens, FaDu, 72 h, read-out: IC50 Value ± SEM Fadu, 72 h treatment, best-fit values, n = 3) was 1300 ± 150 nM, the IC50 ([4]; Homo sapiens, FaDu, read-out: Fadu IC50 values, Mean, mean of independently fitted replicate IC50 values (Supplement S.6)) was 1340 nM and the IC50 ([4]; Homo sapiens, FaDu, read-out: Fadu IC50 values, individual replicates n1-n3, IC50 independently determined for each replicate measurement (Supplement S.6)) was 1350 nM. The IC50 ([4]; read-out: Fadu IC50 values, individual replicates n1-n3, IC50 independently determined for each replicate measurement (Supplement S.6)) was 1410 nM and 1260 nM and the viability at 72 h [5] was over 50%.
